Data reported in US10765114B2, “4-amino-6-(pyridyl and 2-substitutedphenyl)-picolinates and 6-amino-2-(pyridyl and 2-substitutedphenyl)-pyrimidine-4-carboxylates and their use as herbicides” (Dow AgroSciences LLC, priority 2013, dated 2020).

The compounds below were run on ALOMY (blackgrass) (assay: Post-Emergent Test III (Wheat and Barley)). Conditions: Alopecurus myosuroides, post-emergence, 504 h; 35 g ai/ha, postemergence; read-out: Visual Growth Reduction (%) 21 Days After Application, ALOMY.
Format: in vivo, Alopecurus myosuroides
Procedure: (§1) Seeds of the desired test plant species were planted in Sun Gro MetroMix® 306 planting mixture, which typically has a pH of 6.0 to 6.8 and an organic matter content of about 30 percent, in plastic pots with a surface area of 103.2 square centimeters (cm^2). When required to ensure good germination and healthy plants, a fungicide treatment and/or other chemical or physical treatment was applied. The plants were grown for 7-36 days in a greenhouse with an approximate 14 h photoperiod which was maintained at about 18° C. during the day and 17° C. during the night. Nutrients and water were added on a regular basis and supplemental lighting was provided with overhead metal halide 1000-Watt lamps as necessary. The plants were employed for testing when they reached the second or third true leaf stage.
(§2) A weighed amount, determined by the highest rate to be tested, of each test compound was placed in a 25 mL glass vial and was dissolved in 4 mL of a 97:3 v/v mixture of acetone and DMSO to obtain concentrated stock solutions. […] The concentrated stock solutions obtained were diluted with 20 mL of an aqueous mixture containing acetone, water, isopropyl alcohol, DMSO, Agri-Dex crop oil concentrate, and X-77 surfactant in a 48:39:10:1.5:1.5:0.02 v/v ratio to obtain spray solutions containing the highest application rates. Additional application rates were obtained by serial dilution of 12 mL of the high rate solution into a solution containing 2 mL of 97:3 v/v mixture of acetone and DMSO and 10 mL of an aqueous mixture containing acetone, water, isopropyl alcohol, DMSO, Agri-Dex crop oil concentrate, and X-77 surfactant in a 48:39:10:1.5:1.5:0.02 v/v ratio to obtain ½×, ¼×, ⅛× and 1/16× rates of the high rate. Compound requirements are based upon a 12 mL application volume at a rate of 187 liters per hectare (L/ha). Formulated compounds were applied to the plant material with an overhead Mandel track sprayer equipped with 8002E nozzles calibrated to deliver 187 L/ha over an application area of 0.503 square meters at a spray height of 18 inches (43 cm) above the average plant canopy height. Control plants were sprayed in the same manner with the solvent blank.
(§3) The treated plants and control plants were placed in a greenhouse as described above and watered by subirrigation to prevent wash-off of the test compounds. After 21 dAYS, the condition of the test plants as compared with that of the untreated plants was determined visually and scored on a scale of 0 to 100 percent where 0 corresponds to no injury and 100 corresponds to complete kill and presented as indicated in Table A.
(§4) By applying the well-accepted probit analysis as described by J. Berkson in Journal of the American Statistical Society, 48, 565 (1953) and by D. Finney in “Probit Analysis” Cambridge University Press (1952), herbicidal injury of a specific compound at various rates can be used to calculate GR10, GR20, GR50, GR80 and GR90 values, which are defined as growth reduction factors that correspond to the effective dose of herbicide required to provide plant growth reduction (GR) of 10 percent, 20 percent, 50 percent, 80 percent and 90 percent, respectively. Probit analysis was applied to data collected from multiple dose rates of individual compounds utilizing the procedures explained in the following examples. The analysis of those dose rates is captured in the following tables.

Row | SMILES | pest or weed control at 35 g/ha [%]
1 | COC(=O)c1nc(-c2ccc(Cl)c(F)c2OC)c(F)c(N)c1Cl [Compound 39, methyl 4-amino-3-chloro-6-(4-chloro-3-fluoro-2-methoxyphenyl)-5-fluoropicolinate] | 0 to 29

Same assay, conditions: Alopecurus myosuroides, post-emergence, 504 h; 70 g ai/ha, postemergence; read-out: Visual Growth Reduction (%) 21 Days After Application, ALOMY

Row | SMILES | pest or weed control at 70 g/ha [%]
2 | COC(=O)c1nc(-c2ccc(Cl)c(F)c2OC)c(F)c(N)c1Cl [Compound 39, methyl 4-amino-3-chloro-6-(4-chloro-3-fluoro-2-methoxyphenyl)-5-fluoropicolinate] | 30 to 44

Same assay, conditions: Alopecurus myosuroides, post-emergence, 504 h; 140 g ai/ha, postemergence; read-out: Visual Growth Reduction (%) 21 Days After Application, ALOMY

Row | SMILES | pest or weed control at 140 g/ha [%]
3 | COC(=O)c1nc(-c2ccc(Cl)c(F)c2OC)c(F)c(N)c1Cl [Compound 39, methyl 4-amino-3-chloro-6-(4-chloro-3-fluoro-2-methoxyphenyl)-5-fluoropicolinate] | 30 to 44

Same assay, conditions: effective dose for growth reduction of 50 percent, probit analysis

Row | SMILES | GR50, ALOMY [g ai/ha]
4 | COC(=O)c1nc(-c2ccc(Cl)c(F)c2OC)c(F)c(N)c1Cl [Compound 39, methyl 4-amino-3-chloro-6-(4-chloro-3-fluoro-2-methoxyphenyl)-5-fluoropicolinate] | >140

Same assay, conditions: effective dose for growth reduction of 80 percent, probit analysis

Row | SMILES | GR80, ALOMY [g ai/ha]
5 | COC(=O)c1nc(-c2ccc(Cl)c(F)c2OC)c(F)c(N)c1Cl [Compound 39, methyl 4-amino-3-chloro-6-(4-chloro-3-fluoro-2-methoxyphenyl)-5-fluoropicolinate] | >140

What follows are compounds tested on APESV (windgrass) (assay: Post-Emergent Test III (Wheat and Barley)). Conditions: Apera spica-venti, post-emergence, 504 h; 35 g ai/ha, postemergence; read-out: Visual Growth Reduction (%) 21 Days After Application, APESV.
Format: in vivo, Apera spica-venti
Procedure: as §1, §2, §3, §4

Row | SMILES | pest or weed control at 35 g/ha [%]
6 | COC(=O)c1nc(-c2ccc(Cl)c(F)c2OC)c(F)c(N)c1Cl [Compound 39, methyl 4-amino-3-chloro-6-(4-chloro-3-fluoro-2-methoxyphenyl)-5-fluoropicolinate] | 30 to 44

Same assay, conditions: Apera spica-venti, post-emergence, 504 h; 70 g ai/ha, postemergence; read-out: Visual Growth Reduction (%) 21 Days After Application, APESV

Row | SMILES | pest or weed control at 70 g/ha [%]
7 | COC(=O)c1nc(-c2ccc(Cl)c(F)c2OC)c(F)c(N)c1Cl [Compound 39, methyl 4-amino-3-chloro-6-(4-chloro-3-fluoro-2-methoxyphenyl)-5-fluoropicolinate] | 60 to 74

Same assay, conditions: Apera spica-venti, post-emergence, 504 h; 140 g ai/ha, postemergence; read-out: Visual Growth Reduction (%) 21 Days After Application, APESV

Row | SMILES | pest or weed control at 140 g/ha [%]
8 | COC(=O)c1nc(-c2ccc(Cl)c(F)c2OC)c(F)c(N)c1Cl [Compound 39, methyl 4-amino-3-chloro-6-(4-chloro-3-fluoro-2-methoxyphenyl)-5-fluoropicolinate] | 60 to 74

Same assay, conditions: effective dose for growth reduction of 50 percent, probit analysis

Row | SMILES | GR50, APESV [g ai/ha]
9 | COC(=O)c1nc(-c2ccc(Cl)c(F)c2OC)c(F)c(N)c1Cl [Compound 39, methyl 4-amino-3-chloro-6-(4-chloro-3-fluoro-2-methoxyphenyl)-5-fluoropicolinate] | 75

Same assay, conditions: effective dose for growth reduction of 80 percent, probit analysis

Row | SMILES | GR80, APESV [g ai/ha]
10 | COC(=O)c1nc(-c2ccc(Cl)c(F)c2OC)c(F)c(N)c1Cl [Compound 39, methyl 4-amino-3-chloro-6-(4-chloro-3-fluoro-2-methoxyphenyl)-5-fluoropicolinate] | >140

What follows are compounds tested on KCHSC (kochia) (assay: Post-Emergent Test III (Wheat and Barley)). Conditions: Bassia scoparia, post-emergence, 504 h; 35 g ai/ha, postemergence; read-out: Visual Growth Reduction (%) 21 Days After Application, KCHSC.
Format: in vivo, Kochia scoparia
Procedure: as §1, §2, §3, §4

Row | SMILES | pest or weed control at 35 g/ha [%]
11 | COC(=O)c1nc(-c2ccc(Cl)c(F)c2OC)c(F)c(N)c1Cl [Compound 39, methyl 4-amino-3-chloro-6-(4-chloro-3-fluoro-2-methoxyphenyl)-5-fluoropicolinate] | 85 to 94

Same assay, conditions: Bassia scoparia, post-emergence, 504 h; 70 g ai/ha, postemergence; read-out: Visual Growth Reduction (%) 21 Days After Application, KCHSC

Row | SMILES | pest or weed control at 70 g/ha [%]
12 | COC(=O)c1nc(-c2ccc(Cl)c(F)c2OC)c(F)c(N)c1Cl [Compound 39, methyl 4-amino-3-chloro-6-(4-chloro-3-fluoro-2-methoxyphenyl)-5-fluoropicolinate] | 95 to 100

Same assay, conditions: Bassia scoparia, post-emergence, 504 h; 140 g ai/ha, postemergence; read-out: Visual Growth Reduction (%) 21 Days After Application, KCHSC

Row | SMILES | pest or weed control at 140 g/ha [%]
13 | COC(=O)c1nc(-c2ccc(Cl)c(F)c2OC)c(F)c(N)c1Cl [Compound 39, methyl 4-amino-3-chloro-6-(4-chloro-3-fluoro-2-methoxyphenyl)-5-fluoropicolinate] | 95 to 100

Same assay, conditions: effective dose for growth reduction of 50 percent, probit analysis

Row | SMILES | GR50, KCHSC [g ai/ha]
14 | COC(=O)c1nc(-c2ccc(Cl)c(F)c2OC)c(F)c(N)c1Cl [Compound 39, methyl 4-amino-3-chloro-6-(4-chloro-3-fluoro-2-methoxyphenyl)-5-fluoropicolinate] | 6

Same assay, conditions: effective dose for growth reduction of 80 percent, probit analysis

Row | SMILES | GR80, KCHSC [g ai/ha]
15 | COC(=O)c1nc(-c2ccc(Cl)c(F)c2OC)c(F)c(N)c1Cl [Compound 39, methyl 4-amino-3-chloro-6-(4-chloro-3-fluoro-2-methoxyphenyl)-5-fluoropicolinate] | 21

What follows are compounds tested on LOLSS (assay: Post-Emergent Test III (Wheat and Barley)). Conditions: post-emergence, 504 h; 35 g ai/ha, postemergence; read-out: Visual Growth Reduction (%) 21 Days After Application, LOLSS.
Format: in vivo
Procedure: as §1, §2, §3, §4

Row | SMILES | pest or weed control at 35 g/ha [%]
16 | COC(=O)c1nc(-c2ccc(Cl)c(F)c2OC)c(F)c(N)c1Cl [Compound 39, methyl 4-amino-3-chloro-6-(4-chloro-3-fluoro-2-methoxyphenyl)-5-fluoropicolinate] | 0 to 29

Same assay, conditions: post-emergence, 504 h; 70 g ai/ha, postemergence; read-out: Visual Growth Reduction (%) 21 Days After Application, LOLSS

Row | SMILES | pest or weed control at 70 g/ha [%]
17 | COC(=O)c1nc(-c2ccc(Cl)c(F)c2OC)c(F)c(N)c1Cl [Compound 39, methyl 4-amino-3-chloro-6-(4-chloro-3-fluoro-2-methoxyphenyl)-5-fluoropicolinate] | 0 to 29

Same assay, conditions: post-emergence, 504 h; 140 g ai/ha, postemergence; read-out: Visual Growth Reduction (%) 21 Days After Application, LOLSS

Row | SMILES | pest or weed control at 140 g/ha [%]
18 | COC(=O)c1nc(-c2ccc(Cl)c(F)c2OC)c(F)c(N)c1Cl [Compound 39, methyl 4-amino-3-chloro-6-(4-chloro-3-fluoro-2-methoxyphenyl)-5-fluoropicolinate] | 0 to 29

Each compound was assayed on TRZSS (assay: Post-Emergent Test III (Wheat and Barley)). Conditions: Triticum aestivum, post-emergence, 504 h; 35 g ai/ha, postemergence; read-out: Visual Growth Reduction (%) 21 Days After Application, TRZSS.
Format: in vivo
Procedure: as §1, §2, §3, §4

Row | SMILES | pest or weed control at 35 g/ha [%]
19 | COC(=O)c1nc(-c2ccc(Cl)c(F)c2OC)c(F)c(N)c1Cl [Compound 39, methyl 4-amino-3-chloro-6-(4-chloro-3-fluoro-2-methoxyphenyl)-5-fluoropicolinate] | 85 to 94

Same assay, conditions: Triticum aestivum, post-emergence, 504 h; 70 g ai/ha, postemergence; read-out: Visual Growth Reduction (%) 21 Days After Application, TRZSS

Row | SMILES | pest or weed control at 70 g/ha [%]
20 | COC(=O)c1nc(-c2ccc(Cl)c(F)c2OC)c(F)c(N)c1Cl [Compound 39, methyl 4-amino-3-chloro-6-(4-chloro-3-fluoro-2-methoxyphenyl)-5-fluoropicolinate] | 95 to 100

Same assay, conditions: Triticum aestivum, post-emergence, 504 h; 140 g ai/ha, postemergence; read-out: Visual Growth Reduction (%) 21 Days After Application, TRZSS

Row | SMILES | pest or weed control at 140 g/ha [%]
21 | COC(=O)c1nc(-c2ccc(Cl)c(F)c2OC)c(F)c(N)c1Cl [Compound 39, methyl 4-amino-3-chloro-6-(4-chloro-3-fluoro-2-methoxyphenyl)-5-fluoropicolinate] | 95 to 100

Same assay, conditions: effective dose for growth reduction of 20 percent, probit analysis

Row | SMILES | GR20, TRZSS [g ai/ha]
22 | COC(=O)c1nc(-c2ccc(Cl)c(F)c2OC)c(F)c(N)c1Cl [Compound 39, methyl 4-amino-3-chloro-6-(4-chloro-3-fluoro-2-methoxyphenyl)-5-fluoropicolinate] | 11

What follows are compounds tested on HORSS (assay: Post-Emergent Test III (Wheat and Barley)). Conditions: Hordeum vulgare, post-emergence, 504 h; 35 g ai/ha, postemergence; read-out: Visual Growth Reduction (%) 21 Days After Application, HORSS.
Format: in vivo
Procedure: as §1, §2, §3, §4

Row | SMILES | pest or weed control at 35 g/ha [%]
23 | COC(=O)c1nc(-c2ccc(Cl)c(F)c2OC)c(F)c(N)c1Cl [Compound 39, methyl 4-amino-3-chloro-6-(4-chloro-3-fluoro-2-methoxyphenyl)-5-fluoropicolinate] | 30 to 44

Same assay, conditions: Hordeum vulgare, post-emergence, 504 h; 70 g ai/ha, postemergence; read-out: Visual Growth Reduction (%) 21 Days After Application, HORSS

Row | SMILES | pest or weed control at 70 g/ha [%]
24 | COC(=O)c1nc(-c2ccc(Cl)c(F)c2OC)c(F)c(N)c1Cl [Compound 39, methyl 4-amino-3-chloro-6-(4-chloro-3-fluoro-2-methoxyphenyl)-5-fluoropicolinate] | 60 to 74

Same assay, conditions: Hordeum vulgare, post-emergence, 504 h; 140 g ai/ha, postemergence; read-out: Visual Growth Reduction (%) 21 Days After Application, HORSS

Row | SMILES | pest or weed control at 140 g/ha [%]
25 | COC(=O)c1nc(-c2ccc(Cl)c(F)c2OC)c(F)c(N)c1Cl [Compound 39, methyl 4-amino-3-chloro-6-(4-chloro-3-fluoro-2-methoxyphenyl)-5-fluoropicolinate] | 75 to 84

Same assay, conditions: effective dose for growth reduction of 20 percent, probit analysis

Row | SMILES | GR20, HORSS [g ai/ha]
26 | COC(=O)c1nc(-c2ccc(Cl)c(F)c2OC)c(F)c(N)c1Cl [Compound 39, methyl 4-amino-3-chloro-6-(4-chloro-3-fluoro-2-methoxyphenyl)-5-fluoropicolinate] | 23
